The values below come from PMC6270065, “Virtual Screening and Structure-Based Discovery of Indole Acylguanidines as Potent β-secretase (BACE1) Inhibitors” (Molecules, 2013).

Each structure is given as a SMILES string. Read-outs that look alike come from different tables or passages of the source. A value given as a limit tells only on which side of the number the result lay.

What is called IC50 is the concentration that gives 50% inhibition. By inhibition is commonly meant the drop in the measured response relative to a control, in per cent.

The assay has as its target T1, BACE1 (Homo sapiens, UniProt P56817).
T1 construct: purchased Invitrogen P2985
In words: BACE1 fluorescence resonance energy transfer (FRET) based enzymatic inhibition assay. It is filed as biochemical. The settings on record: for inhibition ratio: ligand concentration of 100 μM; for Inhibition ratio (100 μM): compound concentration 100 μM, Table 1; for inhibition at 100 µM: compound concentration 100 µM. As for the experimental part:
3.3. Fluorescence Resonance Energy Transfer (FRET) Based Enzymatic Assay
The BACE1 fluorescence resonance energy transfer assay kit was purchased from Invitrogen (Carlsbad, CA, USA, cat. P2985). BACE1 activity assays were carried out following the manufacturer’s protocol. The enzyme, substrate, and compounds were diluted in a reaction buffer (50 mM sodium acetate, pH 4.5) to make 3× working solutions. The assay was carried out in a black 384-well microplate with a final volume of 30 μL which contains each 10 μL of 3× substrate, enzyme, and compound stocks, respectively. The final concentration of DMSO is less than 3% (v/v). The reaction mixture was incubated at 37 °C for 90 min with oscillation. Then, 10 μL of a stop solution (2.5 M sodium acetate) was added to stop the reaction. Finally, the fluorescent intensity of the enzymatic product was measured at Ex/Em = 535 nm/585 nm on a BioTek SYNERGY4 reader (BioTek, Winooski, VT, USA). Triplicate was run for each assay. IC50 values were calculated from the concentration–inhibition curves by nonlinear regression analysis. Eight concentrations were tested for each compound to produce the concentration–inhibition curve.

T1 sequence (P56817 46-501): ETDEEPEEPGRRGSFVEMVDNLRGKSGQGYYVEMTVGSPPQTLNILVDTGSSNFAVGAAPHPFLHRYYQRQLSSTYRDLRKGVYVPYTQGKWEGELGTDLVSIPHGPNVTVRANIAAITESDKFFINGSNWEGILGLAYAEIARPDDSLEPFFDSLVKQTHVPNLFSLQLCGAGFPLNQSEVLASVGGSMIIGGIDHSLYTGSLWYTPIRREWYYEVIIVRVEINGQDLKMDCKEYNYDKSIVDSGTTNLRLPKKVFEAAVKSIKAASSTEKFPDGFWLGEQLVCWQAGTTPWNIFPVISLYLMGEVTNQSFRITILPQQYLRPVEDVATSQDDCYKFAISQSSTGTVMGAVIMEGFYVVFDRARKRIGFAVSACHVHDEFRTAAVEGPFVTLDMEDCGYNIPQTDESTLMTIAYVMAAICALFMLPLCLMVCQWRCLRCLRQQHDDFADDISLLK

Turning to `N=C(N)NCCn1ccc2ccccc21` [Compound 4, 1-(2-(1H-indol-1-yl)ethyl)guanidine], the IC50 is greater than 100000 nM and the inhibition ratio result was “about 42%”. As to `N=C(N)NC(=O)Cn1ccc2ccccc21` [Compound 5, N-Carbamimidoyl-2-(1H-indol-1-yl)acetamide], the “Inhibition ratio (100 μM)” value came out at 77.00% and the inhibition ratio was determined as 77%.

Consider `N=C(NCc1ccccc1)NC(=O)Cn1ccc2ccccc21` [Compound 12], for which the “Inhibition ratio (100 μM)” value was 40.69%. `N=C(NCc1cccc(I)c1)NC(=O)Cn1ccc2ccccc21` [Compound 13, 2-(1H-Indol-1-yl)-N-(N-(3-iodobenzyl)carbamimidoyl)acetamide]: the “Inhibition ratio (100 μM)” value is recorded as 85.24%.

For the compound `COc1cccc(CNC(=N)NC(=O)Cn2ccc3ccccc32)c1` [Compound 14, 2-(1H-Indol-1-yl)-N-(N-(3-methoxybenzyl)carbamimidoyl)acetamide], the “Inhibition ratio (100 μM)” value amounted to 58.75%. For `N=C(NCc1cc(F)cc(F)c1)NC(=O)Cn1ccc2ccccc21` [Compound 15, N-(N-(3,5-Difluorobenzyl)carbamimidoyl)-2-(1H-indol-1-yl)acetamide], the “Inhibition ratio (100 μM)” value was 52.38%. With `N=C(NCc1cccc(OC(F)(F)F)c1)NC(=O)Cn1ccc2ccccc21` [Compound 16, 2-(1H-Indol-1-yl)-N-(N-(3-(trifluoromethoxy)benzyl)carbamimidoyl)acetamide], the “Inhibition ratio (100 μM)” value is on record as 66.51%. Take `N=C(NCc1cc(Cl)cc(Cl)c1)NC(=O)Cn1ccc2ccccc21` [Compound 17, N-(N-(3,5-Dichlorobenzyl)carbamimidoyl)-2-(1H-indol-1-yl)acetamide]: the IC50 came to 8750 ± 1070 nM and the “Inhibition ratio (100 μM)” value is listed as 100%. On to `CC(=O)Nc1ccc(CNC(=N)NC(=O)Cn2ccc3ccccc32)cc1` [Compound 18, N-(N-(4-Acetamidobenzyl)carbamimidoyl)-2-(1H-indol-1-yl)acetamide], for which the “Inhibition ratio (100 μM)” value stood at 35.3%. As to `CC(=O)Nc1c(Cl)cc(CNC(=N)NC(=O)Cn2ccc3ccccc32)cc1Cl` [Compound 19, N-(N-(4-Acetamido-3,5-dichlorobenzyl)carbamimidoyl)-2-(1H-indol-1-yl)acetamide], the IC50 came to 1010 ± 91 nM and the “Inhibition ratio (100 μM)” value was 100%. The inhibition at 100 µM (Table 2) was found to be 100%.

Take `CCNc1c(Cl)cc(CNC(=N)NC(=O)Cn2ccc3ccccc32)cc1Cl` [Compound 20, N-(N-(3,5-Dichloro-4-(ethylamino)benzyl)carbamimidoyl)-2-(1H-indol-1-yl)acetamide]: the “Inhibition ratio (100 μM)” value is reported as 46.8%. Consider `CC(C)C(=O)Nc1c(Cl)cc(CNC(=N)NC(=O)Cn2ccc3ccccc32)cc1Cl` [Compound 21, N-(4-((3-(2-(1H-Indol-1-yl)acetyl)guanidino)methyl)-2,6-dichlorophenyl)isobutyramide], for which the IC50 is 1720 ± 210 nM and the “Inhibition ratio (100 μM)” value stood at 92.2%. Regarding `CC(=O)Nc1c(Cl)cc(CNC(=N)NC(=O)Cn2ccc3cc(Br)ccc32)cc1Cl` [Compound 22, N-(N-(4-Acetamido-3,5-dichlorobenzyl)carbamimidoyl)-2-(5-bromo-1H-indol-1-yl)acetamide], where the note is “Table 2”, the IC50 is 106 ± 13 nM and the inhibition at 100 µM was determined as 109%. With `CC(=O)Nc1c(Cl)cc(CNC(=N)NC(=O)Cn2ccc3ccc(Br)cc32)cc1Cl` [Compound 23, N-(N-(4-Acetamido-3,5-dichlorobenzyl)carbamimidoyl)-2-(6-bromo-1H-indol-1-yl)acetamide], under “Table 2”, the IC50 amounted to 79 ± 8 nM and the inhibition at 100 µM worked out at 100%. Turning to `CC(=O)Nc1c(Cl)cc(CNC(=N)NC(=O)Cn2ccc3cc(C#N)ccc32)cc1Cl` [Compound 24, N-(N-(4-Acetamido-3,5-dichlorobenzyl)carbamimidoyl)-2-(5-cyano-1H-indol-1-yl)acetamide], under “Table 2”, the IC50 worked out at 57 ± 4 nM and the inhibition at 100 µM is 99.5%.

As to `COc1ccc2ccn(CC(=O)NC(=N)NCc3cc(Cl)c(NC(C)=O)c(Cl)c3)c2c1` [Compound 27, N-(N-(4-Acetamido-3,5-dichlorobenzyl)carbamimidoyl)-2-(6-methoxy-1H-indol-1-yl)acetamide], for the setting “Table 2”, the IC50 was 224 ± 33 nM and the inhibition at 100 µM came out at 103%. For `CC(=O)Nc1c(Cl)cc(CNC(N)=NC(=O)Cn2ccc3ccc(CN(C)S(C)(=O)=O)cc32)cc1Cl` [Compound 28], under “Table 2”, the IC50 is 840 ± 101 nM and the inhibition at 100 µM is 100%.
